Literature values, collected in US20210319872A1, “DRUG AND DEVICE COMBINATION PRODUCTS WITH IMPROVED SAFETY AND EFFICACY PROFILES” (priority 2016, published 2021).

Conditions: in vivo

For `C[C@H](O)[C@H](O)[C@H]1CNc2[nH]c(N)nc(=O)c2N1.Cl.Cl` [Kuvan], the Cough is given as “Respiratory: Cough (4% or more), Nasal congestion (4% or more),”, the Diarrhea is given as “Gastrointestinal: Diarrhea (4% or more), Vomiting (4% or more)” and the Headache is given as “Neurologic: Headache (4% or greater)”. The Nasal congestion was “Respiratory: Cough (4% or more), Nasal congestion (4% or more),”, the Nasal discharge was “Nasal discharge (4% or more), Pain in throat (4% or more), Upper” and the Pain in throat was “Nasal discharge (4% or more), Pain in throat (4% or more), Upper”. The “Serious side effect, Cardiovascular” value was “Cardiovascular: Myocardial infarction”, the “Serious side effect, Gastrointestinal” value was “Gastrointestinal: Gastrointestinal hemorrhage” and the “Serious side effect, Hematologic” value was “Hematologic: Hemorrhage, Post-procedural”. The “Serious side effect, Neurologic” value was “Neurologic: Seizure”, the “Serious side effect, Respiratory” value was “Respiratory: Respiratory failure” and the Upper respiratory infection was “respiratory infection (17%)”. For the same compound, the Vomiting was “Gastrointestinal: Diarrhea (4% or more), Vomiting (4% or more)”.
For `Cc1nnc2n1-c1ccc(Cl)cc1C(c1ccccc1)=NC2` [Xanax (alprazolam)], the Cognitive disorder is listed as “Neurologic: Cognitive disorder (28.8%), Confusion (1.5% to”, the Confusion is listed as “Neurologic: Cognitive disorder (28.8%), Confusion (1.5% to” and the Constipation is listed as “Gastrointestinal: Constipation (8.1% to 26.2%), Reduced salivation”. For the same compound, the Decrease in appetite was “Endocrine metabolic: Decrease in appetite (7.3% to 27.8%),”, the Fatigue was “Other: Fatigue (13.9% to 48.6%)” and the Increased appetite was “Increased appetite (7% to 32.7%), Weight increase (2.7% to 27.2%)”. For the same compound, the Memory impairment was 40.1%), Lightheadedness (20.8%), Memory impairment (15.4% to, the Reduced libido was “Reproductive: Reduced libido (6% to 14.4%)” and the Reduced salivation was “(32.8%), Xerostomia (10.2% to 14.7%)”. The Sedated was 33.1%), Sedated (45.2%), Somnolence (23% to 76.8%), the “Serious side effect, Dermatologic” value was “Dermatologic: Stevens-Johnson syndrome” and the Somnolence was 33.1%), Sedated (45.2%), Somnolence (23% to 76.8%). For the same compound, the Weight increase was “Increased appetite (7% to 32.7%), Weight increase (2.7% to 27.2%)” and the Xerostomia was “(32.8%), Xerostomia (10.2% to 14.7%)”.
For `CC(C)(C)NCC(O)COc1cccc2c1CC(O)C(O)C2` (stereo not drawn) [Nadolol (Corgard)], the Bradyarrhythmia is given as “Cardiovascular: Bradyarrhythmia (2%)”, the Cardiac dysrhythmia is given as “Cardiovascular: Atrioventricular block, Cardiac dysrhythmia (1%),” and the Dizziness is given as “Neurologic: Dizziness (2%)”. The Fatigue was “Other: Fatigue (2%)”, the Heart failure was “Heart failure (1%)” and the “Serious side effects, listed without incidence or only as rare” value was “Cardiovascular: Atrioventricular block, Cardiac dysrhythmia (1%),”.
In the case of `O=C(NC[C@H]1CN(c2ccc(N3CCOCC3=O)cc2)C(=O)O1)c1ccc(Cl)s1` [Rivaroxaban (Xarelto)], the Gastrointestinal hemorrhage is given as “fibrillation, 3.1%)” and the Syncope is given as “Cardiovascular: Syncope (1.2%)”.
For `CN1CCN(C(=O)O[C@H]2c3nccnc3C(=O)N2c2ccc(Cl)cn2)CC1` [Lunesta (eszopiclone)], the Angioedema is listed as “Other: Angioedema (rare)”, the Disorder of taste is listed as “Gastrointestinal: Disorder of taste (8% to 34%), Vomiting (3%)” and the Dizziness is listed as “Neurologic: Dizziness (1% to 7%), Headache (13% to 21%),”. The Headache was “Neurologic: Dizziness (1% to 7%), Headache (13% to 21%),”, the Migraine was “Migraine (1% or greater)” and the Respiratory tract infection was “Respiratory: Respiratory tract infection (5% to 10%)”. For the same compound, the Vomiting was “Gastrointestinal: Disorder of taste (8% to 34%), Vomiting (3%)”.
For `C[C@H](CS)C(=O)N1CCC[C@H]1C(=O)O` [Captopril (Capoten)], the Agranulocytosis is given as “Hematologic: Agranulocytosis (0.1% to 0.2%), Neutropenia (0.1%”, the Angioedema is given as “Other: Angioedema (0.1%)” and the Cough is given as “Respiratory: Cough (0.5% to 2%)”. The Hyperkalemia was “Endocrine metabolic: Hyperkalemia (11%)” and the Neutropenia was “Hematologic: Agranulocytosis (0.1% to 0.2%), Neutropenia (0.1%”.
In the case of `O=C1CCc2ccc(OCCCCN3CCN(c4cccc(Cl)c4Cl)CC3)cc2N1` [Aripiprazole (Abilify)], the Akathisia is given as “Neurologic: Akathisia (2% to 25%), Dizziness (4% to 10%),”, the Angioedema is given as “Other: Angioedema (0.1% to less than 1%), Increased body” and the Anxiety is given as “Psychiatric: Anxiety (4% to 17%), Restlessness (2% to 12%)”. The Cardiorespiratory arrest was “Cardiovascular: Cardiorespiratory arrest (0.1% to 1%),”, the Cardiorespiratory failure was “Cardiorespiratory failure (0.1% to 1%), Myocardial infarction” and the Constipation was “Gastrointestinal: Constipation (5% to 11%), Nausea (8% to 15%),”. The Diabetic ketoacidosis was “Endocrine metabolic: Diabetic ketoacidosis (Less than 0.1%)”, the Dizziness was “Neurologic: Akathisia (2% to 25%), Dizziness (4% to 10%),” and the Extrapyramidal sign was “Extrapyramidal sign (2% to 27.3%), Headache (10% to 27%),”. The Fatigue was “Other: Fatigue (2% to 17%)”, the Headache was “Extrapyramidal sign (2% to 27.3%), Headache (10% to 27%),” and the Leukopenia was “Hematologic: Agranulocytosis, Leukopenia (Less than 1%),”. For the same compound, the Myocardial infarction was “(0.1% to 1%), Prolonged QT interval (0.1% to 1%)”, the Nausea was “Gastrointestinal: Constipation (5% to 11%), Nausea (8% to 15%),” and the Neutropenia was “Neutropenia (Less than 1%)”. The Pancreatitis was “Gastrointestinal: Pancreatitis (Less than 0.1%)”, the “Prolonged QT interval” value was “(0.1% to 1%), Prolonged QT interval (0.1% to 1%)” and the Restlessness was “Psychiatric: Anxiety (4% to 17%), Restlessness (2% to 12%)”. For the same compound, the Rhabdomyolysis was “Musculoskeletal: Rhabdomyolysis (Less than 0.1%)”, the Sedated was “Insomnia (8% to 18%), Sedated (3% to 21%), Somnolence (6% to” and the Seizure was “Neurologic: Cerebrovascular accident, Seizure (Up to 0.3%),”. The Tremor was 26.3%), Tremor (2% to 11.8%) and the Vomiting was “Vomiting (3% to 11%)”.
For `COC(=O)C1=C(C)NC(C)=C(C(=O)OCC(C)C)C1c1ccccc1[N+](=O)[O-]` (stereo not drawn) [Nisoldipine (Sular)], the Dizziness is given as “Neurologic: Dizziness (5%), Headache (22%)”, the Headache is given as “Neurologic: Dizziness (5%), Headache (22%)” and the Palpitations is given as “Cardiovascular: Palpitations (3%), Peripheral edema (22%),”. For the same compound, the Peripheral edema was “Cardiovascular: Palpitations (3%), Peripheral edema (22%),”, the Pharyngitis was “Respiratory: Pharyngitis (5%), Sinusitis” and the “Serious side effects, listed without incidence or only as rare” value was “Cardiovascular: Myocardial infarction”. The Vasodilatation was “Vasodilatation (4%)”.
For `O=[N+]([O-])OCC(CO[N+](=O)[O-])O[N+](=O)[O-]` [Nitrates (Nitroglycerin)], the “Common side effect listed (incidence not given)” value is listed as “Dermatologic: Flushing”, the “Dizziness (incidence)” value is listed as “Neurologic: Dizziness (5%), Headache (63% to 64%),” and the “Headache (incidence)” value is listed as “Neurologic: Dizziness (5%), Headache (63% to 64%),”. The “Hypotension (incidence)” value was “Cardiovascular: Hypotension (4%)” and the “Lightheadedness (incidence)” value was “Lightheadedness (6%)”.
For `CCC(=O)O[C@@H](O[P@](=O)(CCCCc1ccccc1)CC(=O)N1C[C@H](C2CCCCC2)C[C@H]1C(=O)O)C(C)C` [Fosinopril (Monopril)], the Cough is listed as “Respiratory: Cough (2.2% to 9.7%)”, the Dizziness is listed as “Neurologic: Dizziness (1.6% to 11.9%)” and the Hyperkalemia is listed as “Endocrine metabolic: Hyperkalemia (2.6%)”. The Hypotension was “Cardiovascular: Hypotension (2.4% to 4.4%)” and the Nausea and vomiting was “Gastrointestinal: Nausea and vomiting (1.2% to 2.2%)”.
For `CNCC[C@H](Oc1cccc2ccccc12)c1cccs1` [Duloxetine (Cymbalta)], the Constipation is given as “Gastrointestinal: Constipation (9% to 10%), Decrease in appetite”, the Diaphoresis is given as “Dermatologic: Diaphoresis (Adult, 6%; pediatric, less than 2%)” and the Diarrhea is given as “(6% to 10%), Diarrhea (Adult, 9%; pediatric, 6%), Nausea (18% to”. For the same compound, the Dizziness was “Neurologic: Asthenia, Dizziness (Adult, 9%; pediatric, 8%),”, the Headache was “Headache (Adult, 13% to 14%; pediatric, 18%), Hypersomnia,” and the Hypertension was “Cardiovascular: Hypertension (2%)”. The Insomnia was “Insomnia (7% to 10%), Sedated, Somnolence”, the Myocardial infarction was “Cardiovascular: Hypertensive crisis, Myocardial infarction (0.01%” and the Xerostomia was 23%), Xerostomia (Adult, 11% to 14%; pediatric, 2%).
In the case of `CCCC(=O)Nc1ccc(OCC(O)CNC(C)C)c(C(C)=O)c1` (stereo not drawn) [Acebutolol (Sectral)], the Angina is given as “Cardiovascular: Angina (2%), Bradyarrhythmia (2%), Heart failure”, the Bradyarrhythmia is given as “Cardiovascular: Angina (2%), Bradyarrhythmia (2%), Heart failure” and the Dizziness is given as “Neurologic: Dizziness (6%), Headache (6%)”. For the same compound, the Fatigue was “Other: Fatigue (11%)”, the Headache was “Neurologic: Dizziness (6%), Headache (6%)” and the Heart failure was “(2%)”.
For `CCCC(C)C1(CC)C(=O)NC(=O)NC1=O` (stereo not drawn) [Nembutal (pentobarbital)], the Agitation is given as “Psychiatric: Agitation (less than 1%)”, the Apnea is given as “Respiratory: Apnea (less than 1%), Hypoventilation (less than 1%)” and the Confusion is given as “Neurologic: Confusion (less than 1%), Dizziness (less than 1%),”. The Dizziness was “Neurologic: Confusion (less than 1%), Dizziness (less than 1%),”, the Hypoventilation was “Respiratory: Apnea (less than 1%), Hypoventilation (less than 1%)” and the Injury of liver was “Hepatic: Injury of liver (less than 1%)”. For the same compound, the Megaloblastic anemia was “Hematologic: Megaloblastic anemia (less than 1%)”, the Somnolence was “Somnolence (1% to 3%)” and the Stevens-Johnson syndrome was “Dermatologic: Stevens-Johnson syndrome (less than 1%)”.
